Measurements as given in article PMC11887051, “Discovery of ONO-2920632 (VU6011887): A Highly Selective and CNS Penetrant TREK-2 (TWIK-Related K+ Channel 2) Preferring Activator In Vivo Tool Compound” (ACS Chemical Neuroscience, 2025).
Blank lines part the entries; values can stand above or below the molecule they belong to.

What was measured:
[1] = target: Adrenergic α2A (Homo sapiens, UniProt P08913); test: Eurofins Lead Profiling radioligand binding; settings: title: 30 μM
[2] = system: GABAA, Flunitrazepam, Central; test: Eurofins Lead Profiling radioligand binding; set-up: species or system Rat; settings: title: 30 μM
[3] = target: Leukotriene, Cysteinyl CysLT1 (Homo sapiens, UniProt Q9Y271); test: Eurofins Lead Profiling radioligand binding; settings: title: 30 μM
[4] = target: Adrenergic α1B (Rattus norvegicus, UniProt P15823); test: Eurofins Lead Profiling radioligand binding; settings: title: 30 μM
[5] = target: Adrenergic β2 (Homo sapiens, UniProt P07550); test: Eurofins Lead Profiling radioligand binding; settings: title: 30 μM
[6] = system: GABAA, Muscimol, Central; test: Eurofins Lead Profiling radioligand binding; set-up: species or system Rat; settings: title: 30 μM
[7] = target: Adenosine A3 (Homo sapiens, UniProt P0DMS8); test: Eurofins Lead Profiling radioligand binding; settings: title: 30 μM
[8] = target: Platelet Activating Factor (PAF) (Homo sapiens, UniProt P25105); test: Eurofins Lead Profiling radioligand binding; settings: title: 30 μM
[9] = target: GABAB1A (Homo sapiens, UniProt Q9UBS5); test: Eurofins Lead Profiling radioligand binding; settings: title: 30 μM
[10] = target: Bradykinin B2 (Homo sapiens, UniProt P30411); test: Eurofins Lead Profiling radioligand binding; settings: title: 30 μM
[11] = system: Ryanodine; test: Eurofins Lead Profiling radioligand binding; set-up: species or system Rat; settings: title: 30 μM
[12] = system: Phorbol Ester; test: Eurofins Lead Profiling radioligand binding; set-up: species or system Mouse; settings: title: 30 μM
[13] = target: T1, TREK-2 (Homo sapiens, UniProt P57789); test: manual patch clamp (MPC) assay, TREK-2, species not stated; assay type: cell-based
T1 sequence (P57789 1-538): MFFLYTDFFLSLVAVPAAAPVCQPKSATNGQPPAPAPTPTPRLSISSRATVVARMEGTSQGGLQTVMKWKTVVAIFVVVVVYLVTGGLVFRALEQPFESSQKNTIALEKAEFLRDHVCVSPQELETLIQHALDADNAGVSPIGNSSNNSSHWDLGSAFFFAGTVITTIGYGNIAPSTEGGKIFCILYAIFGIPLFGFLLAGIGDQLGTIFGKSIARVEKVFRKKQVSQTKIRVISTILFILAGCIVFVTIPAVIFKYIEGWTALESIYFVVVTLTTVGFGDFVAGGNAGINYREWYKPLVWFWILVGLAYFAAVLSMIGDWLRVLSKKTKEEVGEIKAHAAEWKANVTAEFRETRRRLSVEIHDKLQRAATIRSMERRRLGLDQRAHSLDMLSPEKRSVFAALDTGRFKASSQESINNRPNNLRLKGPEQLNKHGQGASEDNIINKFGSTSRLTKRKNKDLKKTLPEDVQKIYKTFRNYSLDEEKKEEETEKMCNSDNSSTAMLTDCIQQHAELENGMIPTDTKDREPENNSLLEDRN

[14] = target: T1, TREK-2; test: human TREK-2 MPC assay; assay type: cell-based; set-up: expressed in transfected cells; host or cells: HEK293
[15] = target: T2, hCav1.2 (Homo sapiens, UniProt Q13936); test: Cav1.2 calcium flux assay; assay type: cell-based; settings: Ca2+ flux assay
T2 construct: host or cells: CHO
Procedure: % inhibition = 100 - (ΔRatio of test compound - ΔRatio of 1 µM control compound)/(ΔRatio of 0.3% DMSO - ΔRatio of 1 µM control compound)x100
Cav1.2 calcium flux assay protocol
CHO cells stably expressing human Cav1.2/b2/a2/d1 hCav1.2/CHO were purchased from ChanTest. hCav1.2/CHO were plated in 384-well plates at a density of 1.0x10^4 cells/well, and cultured overnight. After the wash by HBSS + 20 mM HEPES buffer, cells were loaded with Fluo-4 dye for 1 hour at room temperature. After the wash by HBSS + 20mM HEPES buffer, the fluorescent intensity was measured by Panoptic and test compounds, control compounds (verapamil) or 0.3% DMSO were added to each well. The change of fluorescent intensity (ΔRatio) and % inhibition to compare the efficacy and potency of test compounds were calculated using the […]
ΔRatio = (fluorescent intensity at 300 seconds after compound addition)/(average of fluorescent […]
% inhibition = 100 - (ΔRatio of test compound - ΔRatio of 10 µM control compound)/(ΔRatio of 0.3% DMSO - ΔRatio of 10 µM control compound)x100
In vitro Plasma protein binding and Brain homogenate binding: Determination of fraction unbound (f u) in plasma was conducted in vitro via equilibrium dialysis using HTDialysis (HTD) membrane plates. The top half of the plate was filled with 100 uL of Dubelco’s Phosphate Buffered Saline, pH 7.4 (DPBS). […]

[16] = target: T3, TREK-1 (Homo sapiens, UniProt O95069); test: human TREK-1 MPC assay; assay type: cell-based; set-up: host or cells: CHO
T3 sequence (O95069 1-426): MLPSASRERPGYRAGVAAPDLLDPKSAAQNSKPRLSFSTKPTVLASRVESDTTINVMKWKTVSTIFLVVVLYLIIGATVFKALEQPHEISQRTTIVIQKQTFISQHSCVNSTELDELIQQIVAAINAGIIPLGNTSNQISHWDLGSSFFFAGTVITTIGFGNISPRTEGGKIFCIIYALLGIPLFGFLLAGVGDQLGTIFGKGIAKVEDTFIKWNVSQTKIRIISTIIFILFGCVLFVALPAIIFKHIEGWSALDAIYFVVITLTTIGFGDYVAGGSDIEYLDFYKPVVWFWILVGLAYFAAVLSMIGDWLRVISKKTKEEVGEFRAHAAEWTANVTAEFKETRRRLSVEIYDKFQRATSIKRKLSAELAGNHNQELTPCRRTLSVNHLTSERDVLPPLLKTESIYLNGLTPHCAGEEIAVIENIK

Adrenergic α2A, sequence (P08913 whole entry): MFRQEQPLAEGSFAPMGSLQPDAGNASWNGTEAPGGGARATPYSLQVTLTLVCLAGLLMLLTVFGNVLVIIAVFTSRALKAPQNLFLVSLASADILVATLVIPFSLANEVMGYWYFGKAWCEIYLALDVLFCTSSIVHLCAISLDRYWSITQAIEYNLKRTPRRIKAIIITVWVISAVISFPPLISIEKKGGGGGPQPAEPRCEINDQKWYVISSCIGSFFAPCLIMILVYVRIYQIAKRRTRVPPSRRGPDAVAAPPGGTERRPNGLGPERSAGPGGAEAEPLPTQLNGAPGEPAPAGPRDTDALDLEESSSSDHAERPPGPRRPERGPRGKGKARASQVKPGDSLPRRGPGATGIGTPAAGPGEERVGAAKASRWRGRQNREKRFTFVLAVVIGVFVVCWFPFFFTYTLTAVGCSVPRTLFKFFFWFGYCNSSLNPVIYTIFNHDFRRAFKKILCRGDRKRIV
Bradykinin B2, sequence (P30411 whole entry): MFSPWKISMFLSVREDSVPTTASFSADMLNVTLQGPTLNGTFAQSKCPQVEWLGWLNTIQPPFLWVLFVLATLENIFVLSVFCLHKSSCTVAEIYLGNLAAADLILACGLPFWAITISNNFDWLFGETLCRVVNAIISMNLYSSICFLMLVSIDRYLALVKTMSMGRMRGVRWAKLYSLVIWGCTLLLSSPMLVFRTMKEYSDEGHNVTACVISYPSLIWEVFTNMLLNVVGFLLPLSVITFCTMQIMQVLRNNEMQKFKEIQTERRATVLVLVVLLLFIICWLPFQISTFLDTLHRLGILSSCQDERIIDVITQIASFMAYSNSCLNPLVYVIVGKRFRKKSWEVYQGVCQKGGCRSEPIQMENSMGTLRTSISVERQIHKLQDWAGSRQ
Adenosine A3, sequence (P0DMS8 whole entry): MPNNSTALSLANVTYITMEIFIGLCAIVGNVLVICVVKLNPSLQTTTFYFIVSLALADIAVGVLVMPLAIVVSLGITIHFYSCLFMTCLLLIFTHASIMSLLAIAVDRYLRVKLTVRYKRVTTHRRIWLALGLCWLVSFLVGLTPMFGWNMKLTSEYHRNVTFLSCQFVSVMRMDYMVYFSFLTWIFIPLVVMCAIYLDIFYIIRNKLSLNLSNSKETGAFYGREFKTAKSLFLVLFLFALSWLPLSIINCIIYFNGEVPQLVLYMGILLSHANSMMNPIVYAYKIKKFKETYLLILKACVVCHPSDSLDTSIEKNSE
Leukotriene, Cysteinyl CysLT1, sequence (Q9Y271 whole entry): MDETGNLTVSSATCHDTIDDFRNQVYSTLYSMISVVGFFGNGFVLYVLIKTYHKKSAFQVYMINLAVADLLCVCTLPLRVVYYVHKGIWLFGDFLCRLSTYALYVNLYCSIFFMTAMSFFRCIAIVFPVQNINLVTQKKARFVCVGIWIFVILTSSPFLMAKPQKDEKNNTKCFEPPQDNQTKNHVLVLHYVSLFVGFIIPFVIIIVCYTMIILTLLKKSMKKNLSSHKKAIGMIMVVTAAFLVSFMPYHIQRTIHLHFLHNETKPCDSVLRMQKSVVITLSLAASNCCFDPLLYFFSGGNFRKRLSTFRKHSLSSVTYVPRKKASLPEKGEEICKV
Platelet Activating Factor (PAF), sequence (P25105 whole entry): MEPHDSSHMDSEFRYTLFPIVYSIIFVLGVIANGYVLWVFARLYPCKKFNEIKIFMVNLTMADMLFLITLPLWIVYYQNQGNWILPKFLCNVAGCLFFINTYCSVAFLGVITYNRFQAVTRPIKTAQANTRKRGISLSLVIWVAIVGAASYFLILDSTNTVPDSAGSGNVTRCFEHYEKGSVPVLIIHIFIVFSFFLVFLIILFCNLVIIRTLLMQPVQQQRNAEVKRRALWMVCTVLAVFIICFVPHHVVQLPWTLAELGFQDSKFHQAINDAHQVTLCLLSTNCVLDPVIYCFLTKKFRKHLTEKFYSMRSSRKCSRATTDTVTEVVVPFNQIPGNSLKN
GABAB1A, sequence (Q9UBS5 15-961 limits assumed): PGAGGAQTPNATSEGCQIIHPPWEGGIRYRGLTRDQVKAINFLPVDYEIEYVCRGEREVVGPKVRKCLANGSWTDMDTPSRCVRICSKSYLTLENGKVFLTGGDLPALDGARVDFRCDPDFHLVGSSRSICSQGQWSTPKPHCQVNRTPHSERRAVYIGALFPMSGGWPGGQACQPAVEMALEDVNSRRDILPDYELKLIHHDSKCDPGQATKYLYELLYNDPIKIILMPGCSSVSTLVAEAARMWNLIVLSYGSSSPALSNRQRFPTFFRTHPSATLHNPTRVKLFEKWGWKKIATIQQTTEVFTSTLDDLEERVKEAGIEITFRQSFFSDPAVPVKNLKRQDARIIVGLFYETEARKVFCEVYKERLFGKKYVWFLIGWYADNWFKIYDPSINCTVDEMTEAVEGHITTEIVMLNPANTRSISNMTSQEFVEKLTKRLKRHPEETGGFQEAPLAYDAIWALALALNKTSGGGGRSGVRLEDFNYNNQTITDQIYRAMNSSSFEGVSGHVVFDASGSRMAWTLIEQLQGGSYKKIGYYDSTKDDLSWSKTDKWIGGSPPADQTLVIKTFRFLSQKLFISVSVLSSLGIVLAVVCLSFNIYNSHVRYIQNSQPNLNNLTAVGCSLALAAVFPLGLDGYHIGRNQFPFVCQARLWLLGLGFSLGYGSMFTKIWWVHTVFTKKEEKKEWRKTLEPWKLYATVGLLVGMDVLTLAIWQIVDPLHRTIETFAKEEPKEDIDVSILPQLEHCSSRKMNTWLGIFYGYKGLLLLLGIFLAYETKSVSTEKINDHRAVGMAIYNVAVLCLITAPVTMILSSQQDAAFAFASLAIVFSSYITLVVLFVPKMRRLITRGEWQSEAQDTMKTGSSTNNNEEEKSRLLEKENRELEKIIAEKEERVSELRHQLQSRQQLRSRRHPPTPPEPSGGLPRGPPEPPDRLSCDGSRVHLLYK
Adrenergic α1B, sequence (P15823 whole entry): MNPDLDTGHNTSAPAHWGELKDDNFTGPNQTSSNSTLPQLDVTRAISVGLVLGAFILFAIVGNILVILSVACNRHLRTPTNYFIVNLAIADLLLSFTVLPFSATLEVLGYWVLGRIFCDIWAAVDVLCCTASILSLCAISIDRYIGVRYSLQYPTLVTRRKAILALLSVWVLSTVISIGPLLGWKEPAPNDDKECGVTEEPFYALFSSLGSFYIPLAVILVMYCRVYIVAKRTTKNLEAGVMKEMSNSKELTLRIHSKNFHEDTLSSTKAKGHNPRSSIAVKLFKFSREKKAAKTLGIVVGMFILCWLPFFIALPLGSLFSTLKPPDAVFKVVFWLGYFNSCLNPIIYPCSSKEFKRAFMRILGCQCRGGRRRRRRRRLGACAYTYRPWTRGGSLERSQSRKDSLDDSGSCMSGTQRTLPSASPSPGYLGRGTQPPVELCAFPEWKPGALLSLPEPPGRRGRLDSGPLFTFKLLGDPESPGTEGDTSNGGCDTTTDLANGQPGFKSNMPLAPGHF
Adrenergic β2, sequence (P07550 whole entry): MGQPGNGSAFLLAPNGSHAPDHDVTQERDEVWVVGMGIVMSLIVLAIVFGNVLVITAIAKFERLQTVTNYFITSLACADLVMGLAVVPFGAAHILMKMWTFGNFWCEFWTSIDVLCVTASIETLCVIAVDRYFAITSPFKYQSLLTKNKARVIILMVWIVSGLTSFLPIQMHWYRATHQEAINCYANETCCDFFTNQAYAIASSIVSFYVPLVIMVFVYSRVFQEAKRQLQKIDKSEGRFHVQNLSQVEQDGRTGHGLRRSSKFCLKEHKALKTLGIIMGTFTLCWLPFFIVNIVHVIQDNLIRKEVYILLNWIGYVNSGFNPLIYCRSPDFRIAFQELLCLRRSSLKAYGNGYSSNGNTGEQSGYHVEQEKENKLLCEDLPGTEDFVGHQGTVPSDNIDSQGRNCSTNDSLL

Structure (SMILES): O=C(NCc1ccc(OC(F)(F)F)cc1F)c1ccc2ncnn2c1 [Compound 19b]
inhibition [1]: 3%
% Inhibition at 10 µM [2]: 0%
inhibition [3]: 5%
inhibition at 10 µM [4]: 6%
inhibition [5]: 2%
% Inhibition at 10 µM [6]: -1%
inhibition [7]: 21%
inhibition [8]: 12%
inhibition [9]: -1%
inhibition at 10 µM [10]: 5%
% Inhibition at 10 µM [11]: 6%
% Inhibition at 10 µM [12]: 0%

selectivity for TREK-2 in MPC assay ([13]; TREK-2 over TREK-1, manual patch clamp): ~8 fold
EC50 ([13]; manual patch clamp): 950 nM
Emax ([13]; manual patch clamp): 126%
Structure (SMILES): CS(=O)(=O)Nc1ccc(C(=O)NCc2ccc(Cl)cc2Cl)cc1 [Compound 13]

EC50 [14]: 190 nM
Emax [14]: 142%
EC50 [16]: 330 nM
Emax [16]: 172%
Structure (SMILES): O=C(NCc1ccc(OC(F)(F)F)cc1Cl)c1ccc2nncn2c1 [Compound 20]
IC50 [15]: > 30000 nM
